Results: paper PMC8791944, “GLUT3 inhibitor discovery through in silico ligand screening and in vivo validation in eukaryotic expression systems” (Scientific Reports, 2022)

biological target: T1, GLUT3 (Homo sapiens, UniProt P11169); assay: Glucose transport assay, wild-type GLUT3 expressed in hxt^0 yeast cells EBY.S7 (C^14-glucose uptake); format: cell-based; conditions: wild-type GLUT3 in hxt^0 yeast cells, 3 mM glucose, uptake 10 min; read-out: IC50 for GLUT3 transport inhibition
T1 construct: expressed in transfected cells; host or cells: Saccharomyces cerevisiae hxt0 strain EBY.S7 (fgy1)
T1 sequence (P11169 1-496): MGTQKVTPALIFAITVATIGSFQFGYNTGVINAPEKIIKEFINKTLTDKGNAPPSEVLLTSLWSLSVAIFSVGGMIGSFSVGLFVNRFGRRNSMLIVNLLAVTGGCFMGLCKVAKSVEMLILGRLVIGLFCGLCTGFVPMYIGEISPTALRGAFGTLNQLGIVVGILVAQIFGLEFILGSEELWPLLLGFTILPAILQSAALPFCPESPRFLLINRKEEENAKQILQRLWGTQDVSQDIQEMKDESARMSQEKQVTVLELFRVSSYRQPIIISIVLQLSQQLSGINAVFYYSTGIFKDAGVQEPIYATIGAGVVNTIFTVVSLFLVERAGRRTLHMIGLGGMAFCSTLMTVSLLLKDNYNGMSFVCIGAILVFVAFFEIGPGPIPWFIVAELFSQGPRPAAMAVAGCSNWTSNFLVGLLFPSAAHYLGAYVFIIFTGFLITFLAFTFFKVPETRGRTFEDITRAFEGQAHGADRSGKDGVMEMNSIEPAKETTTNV
From the text: To experimentally validate the ligand candidates determined by the virtual ligand screening, we tested their effect on GLUT3 transport activity. For this, we used the recently established assay system[67] in which GLUT3 is expressed in a yeast strain devoid of endogenous hexose transporters (hxt^0) so that glucose uptake into cells relies solely on the activity of GLUT3.
We determined GLUT3 transport activity by measuring the accumulation of radioactive glucose inside whole hxt^0 yeast cells (see “Materials and methods” for details). To select an appropriate substrate concentration for transport inhibition screening, we assessed the KM of glucose for GLUT3 in hxt^0 cells. […] Indeed, functional expression of human GLUTs in hxt^0 cells often requires mutations in genes related to yeast lipid composition[65],[73] as well as single-site mutations that may favor the outward-facing conformation of the transporters[65]–[67].
Hexose transporter deficient yeast strains (hxt^0) EBY.VW4000 for expression of GLUT5, EBY.S7 (carrying the fgy1 mutation) for expression of GLUT1-3, and SDY.022 (EBY.S7 Δerg4) for expression of GLUT4 cells, and corresponding plasmids[65],[66],[73] were from the labs of Drs. Eckhard Boles and Mislav Oreb (Goethe University, Germany). Media ingredients and buffer components were from VWR or Millipore Sigma. Commercial providers for chemicals tested for GLUT3 inhibition are listed in Supplementary Table S1. C^14-glucose was from Moravek Inc (Brea, CA, USA). Cancer cell lines were from ATCC (https://www.atcc.org).
The plasmids containing functional constructs of GLUT1-5 were transformed in the corresponding hxt^0 strains[65],[66],[73] (EBY.VW4000 for GLUT5S72Y, EBY.S7 for GLUT1, GLUT2∆loopS_Q455R, GLUT3 and GLUT3S66Y, and SDY.022 for GLUT4) and grown on 2% (w/v) agar plates of the respective media supplemented with 1% (w/v) maltose. An initial culture of ~ 10 ml was started with a few colonies and grown for 2–3 days if the media was SC-uracil with 1% (w/v) maltose (GLUT1, GLUT3, GLUT4) or 1–2 days if the media was YEP with 1% (w/v) maltose and 100 µg/ml geneticin G418 (GLUT2∆loopS_Q455R and GLUT5S72Y). Cells were washed once in the corresponding media in which maltose was substituted with 0.1–2% hexose substrate for the expressing GLUT (i.e., SC-uracil, 2% (w/v) glucose for GLUT1; SC-uracil, 0.2% (w/v/) glucose for GLUT3 and GLUT4; YEP, 0.2% (w/v) glucose, 100 µg/ml geneticin G418 for GLUT2∆loopS_Q455R, and YEP, 2% (w/v) fructose for GLUT5 S72Y). Then, cells were transferred in the same media so that OD600nm ~ 0.5 and grown further for 1–2 days.
For transport activity assay, cells in the hexose media were centrifuged (1000×g, 5 min, room temperature), washed once with PBS buffer (10 mM Na2HPO4, 1.8 mM KH2PO4, 2.7 mM KCl, 137 mM NaCl, pH 7.4), and resuspended in PBS buffer at an OD600nm ~ 10; each assay contained 100 µl of this cell solution. Transport activity assay was started by adding C^14-hexose at a substrate concentration corresponding to the respective KM (5 mM glucose for GLUT1 or GLUT4, 3 mM glucose for GLUT3 or 1.5 mM glucose for GLUT3S66Y, 15 mM glucose for GLUT2∆loopS_Q455R, and 10 mM fructose for GLUT5S72Y); for determining the glucose KM in GLUT3 and GLUT3S66Y, substrate concentrations were varied accordingly. […] The filtration membranes were transferred into scintillation vials with 10 ml of Scintillation Solution (BioSafeII; Research Products International, Mount Prospect, IL, USA), and vortexed briefly. The radioactivity was determined with a scintillation counter (Tri-carb 2900TR, Perkin Elmer, USA).

SMILES	IC50 [µM]
COc1ccccc1-n1c(/C=C/c2ccc(O)cc2)nc2ccc(Br)cc2c1=O [G3iB, 6-bromo-2-[(E)-2-(4-hydroxyphenyl)ethenyl]-3-(2-methoxyphenyl)quinazolin-4(3H)-one]	12.2 ± 4
Cc1cc(NC(=O)CCC2Cc3ccccc3NC2=O)nc(-c2ccccc2)n1 (stereo not drawn) [G3iD]	19.3 ± 4.7
O=C(Nc1cccc(Cl)c1)c1cccc(NC(=O)c2cccc([N+](=O)[O-])c2)c1 [G3iE, N-{3-[(3-chloroanilino)carbonyl]phenyl}-3-nitrobenzamide]	23.6 ± 1.9
Cc1cccnc1OC1CCN(c2cc(N3CCCC3CO)ncn2)CC1 (stereo not drawn) [G3iC]	12.5 ± 4.4
Cc1ccccc1CN(Cc1nnc(C(C)(C)C)o1)c1ccc2nc(O)[nH]c2c1 [G3iF]	38.4 ± 11.8
CC(=O)Nc1ccc(S(=O)(=O)Nc2ccc(Nc3cc(N(C)C)nc(C)n3)cc2)cc1 [G3iA, N-(4-{[(4-{[6-(dimethylamino)-2-methylpyrimidin-4-yl]amino}phenyl)amino]sulfonyl}phenyl)acetamide]	7.01 ± 1.02
